Some test systems named below: HCT-116 colon; SK-OV-3 ovarian; IGROV1 ovarian; SN12C renal; SF-268 CNS; HT29 colon; A549 NSCLC; OVCAR-5 ovarian; LOX IMVI melanoma; NCI-H226 lung.
Holding throughout (test): NCI-60 cell line screen, 48 h

Several values for one entry are separate records, joined by “and”; a condition that tells them apart may be missing. Identical values can stand only once.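 Following 48 hours of exposure in 96-well plates, responses at five concentrations were used to interpolate endpoints linearly. GI50 = concentration required for 50% inhibition of growth. TGI: concentration producing complete growth inhibition.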

For the compound `O=C1c2cccc(NCCN=Cc3ccccc3O)c2C(=O)c2c(NCCN=Cc3ccccc3O)cccc21`, the GI50 is 0.387 µM in the assay with HCT-116 colon; 1.5 µM in the assay with SK-OV-3 ovarian; 0.237 µM in the assay on IGROV1 ovarian; 0.269 µM in the assay with SN12C renal; 0.349 µM in the assay on SF-268 CNS; 0.298 µM in the assay with HT29 colon. Besides, the GI50 is 0.668 µM with A549 NSCLC, 1.41 µM with OVCAR-5 ovarian, 0.534 µM with LOX IMVI melanoma and 0.571 µM in the assay with NCI-H226 lung. Moreover, the TGI with SK-OV-3 ovarian came to 4.99 µM; with IGROV1 ovarian, 0.504 µM; with SN12C renal, 2.05 µM; in the assay on SF-268 CNS, 1.46 µM; with HT29 colon it was 1.93 µM; with A549 NSCLC, 14.3 µM. For the same compound, the results for the TGI in the assay on OVCAR-5 ovarian, with LOX IMVI melanoma and with NCI-H226 lung were 5.43 µM, 2.44 µM and 6 µM, respectively.

Consider `O=C(Nc1n[nH]c2nnc(-c3cccnc3)cc12)C1CC1`, for which the GI50 was 4.47 µM in the assay with HCT-116 colon; 0.621 µM in the assay with SK-OV-3 ovarian; greater than 11.7 µM with IGROV1 ovarian; greater than 11.7 µM with SN12C renal; greater than 11.8 µM with SF-268 CNS; 4.76 µM in the assay with HT29 colon. Further, the GI50 in the assay with A549 NSCLC is greater than 20.7 µM; in the assay on OVCAR-5 ovarian, greater than 17.8 µM; in the assay on LOX IMVI melanoma, 6.99 µM; in the assay on NCI-H226 lung, 2.7 µM. In addition, the TGI with HCT-116 colon is greater than 19.5 µM; with SK-OV-3 ovarian, greater than 25 µM; with IGROV1 ovarian, greater than 25 µM; in the assay on SN12C renal it was greater than 25 µM; in the assay on SF-268 CNS, greater than 25 µM; with HT29 colon it was greater than 25 µM. Further, the TGI in the assay with A549 NSCLC is greater than 25 µM; in the assay with OVCAR-5 ovarian, greater than 25 µM; in the assay with LOX IMVI melanoma it was greater than 25 µM; in the assay with NCI-H226 lung it was greater than 13.9 µM.

In the case of `O=c1oc2ccc(Br)cc2c(=O)n1-c1ccc(I)cc1F`, the GI50 in the assay on HCT-116 colon was 0.396 µM; with SK-OV-3 ovarian, 0.271 µM; in the assay on IGROV1 ovarian, 0.378 µM; in the assay with SN12C renal, 0.33 µM; in the assay with SF-268 CNS, 0.383 µM; in the assay with HT29 colon, 3.31 µM. Further, the GI50 with A549 NSCLC was 0.717 µM; in the assay with OVCAR-5 ovarian, 3.59 µM; in the assay on LOX IMVI melanoma, 0.393 µM; with NCI-H226 lung it was 0.66 µM. Besides, the TGI worked out at 1.53 µM in the assay with HCT-116 colon; 2.13 µM in the assay on SK-OV-3 ovarian; 18.9 µM with IGROV1 ovarian; 2.79 µM with SN12C renal; 4.82 µM in the assay on SF-268 CNS; 12.5 µM with HT29 colon. For the same compound, the TGI in the assay with A549 NSCLC is 22.9 µM; in the assay with OVCAR-5 ovarian, greater than 100 µM; in the assay on LOX IMVI melanoma, 2.94 µM; with NCI-H226 lung, 3.36 µM.

Take `COc1cc2c(cc1OC)C1Cc3cc(OC)c(OC)cc3C(C2)N1C`: the TGI was greater than 75 µM with HCT-116 colon; greater than 75 µM with SK-OV-3 ovarian; greater than 75 µM in the assay on IGROV1 ovarian; greater than 100 µM in the assay on SN12C renal; greater than 100 µM with SF-268 CNS; greater than 100 µM in the assay on HT29 colon. Also, the TGI in the assay with A549 NSCLC is greater than 100 µM; in the assay on OVCAR-5 ovarian, greater than 100 µM; in the assay with LOX IMVI melanoma it was greater than 75 µM; in the assay with NCI-H226 lung, greater than 75 µM. For the same compound, the GI50 in the assay with HT29 colon was 23.5 µM and 54 µM.

Take `O=C(Nc1ccccc1)c1cc(S(=O)(=O)Nc2nc3ccccc3o2)c(SCc2ccccc2)cc1Cl`: the GI50 with HCT-116 colon was 25.1 µM; in the assay on SK-OV-3 ovarian, 22.3 µM; with IGROV1 ovarian it was 17.9 µM; with SN12C renal, 20.3 µM; with SF-268 CNS, 15.4 µM; in the assay on HT29 colon it was 43 µM. Also, the GI50 in the assay on A549 NSCLC is 21 µM; in the assay with OVCAR-5 ovarian, 22.5 µM; with LOX IMVI melanoma, 20 µM; with NCI-H226 lung it was 21.5 µM. Further, the TGI with HCT-116 colon was 66.1 µM; in the assay on SK-OV-3 ovarian, 58.7 µM; in the assay on IGROV1 ovarian, 36.7 µM; with SN12C renal, 46.2 µM; in the assay with SF-268 CNS, 41.4 µM; in the assay on HT29 colon, greater than 100 µM. Also, the TGI came out at 53.8 µM in the assay with A549 NSCLC, 43.3 µM in the assay with OVCAR-5 ovarian, 40.3 µM in the assay on LOX IMVI melanoma and 50.7 µM in the assay on NCI-H226 lung.

Take `COc1ccc(C2C=C(c3ccc4c(c3)OCO4)Oc3c2c(=O)oc2ccccc32)cc1OC` (stereo not given): the TGI in the assay on HCT-116 colon is greater than 100 µM; in the assay on SK-OV-3 ovarian, greater than 69.6 µM; in the assay with IGROV1 ovarian, greater than 100 µM; in the assay on SN12C renal, greater than 100 µM; in the assay with SF-268 CNS, greater than 100 µM; with HT29 colon it was greater than 85.5 µM. The TGI with A549 NSCLC is greater than 100 µM; in the assay on OVCAR-5 ovarian it was greater than 100 µM; with LOX IMVI melanoma, greater than 100 µM; in the assay with NCI-H226 lung it was 9.6 µM.

Regarding `COc1cc2c(cc1Nc1nc(Nc3cccc(F)c3C(N)=O)c3cc[nH]c3n1)N(C(=O)CN1CCN(C(C)C)CC1)CC2`, the GI50 was 3.39 µM in the assay with HCT-116 colon; 3.85 µM in the assay on SK-OV-3 ovarian; 4.5 µM in the assay on IGROV1 ovarian; 4.66 µM in the assay with SN12C renal; 3.98 µM with SF-268 CNS; 0.685 µM with HT29 colon. Moreover, the GI50 in the assay on A549 NSCLC was 3.48 µM; in the assay with OVCAR-5 ovarian it was 2.82 µM; with LOX IMVI melanoma it was 3.49 µM; in the assay with NCI-H226 lung, 3.41 µM. The TGI in the assay on HCT-116 colon is 6.63 µM; in the assay with SK-OV-3 ovarian, 7.26 µM; in the assay on IGROV1 ovarian, 10.2 µM; with SN12C renal, 10.5 µM; with SF-268 CNS it was 8.34 µM; in the assay with HT29 colon, 4.06 µM. The TGI was 7.19 µM in the assay with A549 NSCLC, 7.35 µM in the assay with OVCAR-5 ovarian, 7.03 µM in the assay on LOX IMVI melanoma and 7.01 µM with NCI-H226 lung.

With `O=c1ssc(Cl)c1Cl`, the TGI in the assay with HCT-116 colon, in the assay on SK-OV-3 ovarian, in the assay on IGROV1 ovarian, in the assay with SN12C renal, in the assay on SF-268 CNS and in the assay on HT29 colon was greater than 10 µM in each case. For the same compound, the TGI with A549 NSCLC, with OVCAR-5 ovarian, in the assay on LOX IMVI melanoma and in the assay with NCI-H226 lung was greater than 10 µM throughout.

For the origin of these results see PubChem BioAssay (NCI).
